{"source": "ChEMBL document CHEMBL5725873", "about": "“Heteroaryl compounds and their use as therapeutic drugs” (2018)", "target": "T1, Tyrosine-protein kinase Mer (Homo sapiens, UniProt Q12866)", "T1 sequence (Q12866 whole entry)": "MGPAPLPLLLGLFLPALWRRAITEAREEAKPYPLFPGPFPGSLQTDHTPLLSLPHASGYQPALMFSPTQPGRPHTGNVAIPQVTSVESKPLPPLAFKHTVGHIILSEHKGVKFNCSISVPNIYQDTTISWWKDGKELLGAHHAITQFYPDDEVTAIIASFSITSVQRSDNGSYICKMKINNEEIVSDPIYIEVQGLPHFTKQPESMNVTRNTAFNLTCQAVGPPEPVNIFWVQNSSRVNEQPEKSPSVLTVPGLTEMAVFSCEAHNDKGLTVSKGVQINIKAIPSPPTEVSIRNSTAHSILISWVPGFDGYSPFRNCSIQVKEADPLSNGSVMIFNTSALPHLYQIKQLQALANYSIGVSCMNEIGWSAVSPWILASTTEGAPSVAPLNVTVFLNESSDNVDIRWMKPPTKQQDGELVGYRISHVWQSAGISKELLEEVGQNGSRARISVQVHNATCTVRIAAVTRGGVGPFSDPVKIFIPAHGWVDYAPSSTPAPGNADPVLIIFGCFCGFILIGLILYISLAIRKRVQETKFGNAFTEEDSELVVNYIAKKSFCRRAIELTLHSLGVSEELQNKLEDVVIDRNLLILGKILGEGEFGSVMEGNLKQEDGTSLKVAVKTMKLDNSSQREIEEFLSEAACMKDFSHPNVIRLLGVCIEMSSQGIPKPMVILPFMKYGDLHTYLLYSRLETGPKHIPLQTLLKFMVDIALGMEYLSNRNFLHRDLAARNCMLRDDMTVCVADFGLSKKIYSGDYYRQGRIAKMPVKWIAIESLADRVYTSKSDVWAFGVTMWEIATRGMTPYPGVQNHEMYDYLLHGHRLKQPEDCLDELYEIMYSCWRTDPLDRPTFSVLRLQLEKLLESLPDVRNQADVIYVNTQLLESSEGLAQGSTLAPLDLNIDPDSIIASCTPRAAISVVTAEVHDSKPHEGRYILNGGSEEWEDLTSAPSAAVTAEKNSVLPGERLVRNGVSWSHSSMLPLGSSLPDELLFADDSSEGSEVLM", "experiment": "TBD: TBD", "data": [{"compound": "CN1CCN(Cc2ccc(-c3ccc(CO[C@H]4CCC[C@@H]4NC(=O)c4cc(-c5ccc(Cl)c(F)c5)cnc4N)cc3)cc2)CC1", "values": [{"measurement": "IC50", "value": "< 10", "unit": "nM"}]}, {"compound": "C[C@@H](CNC(=O)c1cc(-c2cnn(C)c2)cnc1N)OCc1ccc(Cl)c(Cl)c1", "values": [{"measurement": "IC50", "value": "> 1000", "unit": "nM"}]}]}
